Test results published in patent US20200368198A1, “METHODS FOR INCREASING FERTILITY” (NEWSOUTH INNOVATIONS PTY LIMITED, priority 2017, published 2020).
“And” between values parts separate entries of the source, which are not always exact repeats. Equal values may be shown once. “Also recorded” adds a separate entry of the source.

Columns and labels:
[1] = test system: C57BL6 females; assay: Reversal design: primordial follicle counts in ovarian histology sections; format: in vivo, mice; settings: doxorubicin 10 mg/kg i.p., NMN in drinking water started four weeks later for 4 weeks; per mouse
From the text: Ovaries were dissected from freshly euthanased animals, and preserved in 10% neutral buffered formalin for 24 hr, followed by 70% ethanol, until embedding in paraffin blocks. Blocks were sectioned on a microtome and subjected to haematoxylin and eosin (H&E) staining. Primordial follicles were manually counted by a blinded investigator.
Next, we decided to investigate whether NMN treatment delivered some time following chemotherapy treatment could actively reverse chemotherapy induced infertility. […] Four weeks later, they received NMN in their drinking water, for another 4 weeks, prior to being euthanased for either oocyte studies or ovarian histological analysis. The rationale of this experimental design is to investigate whether NMN has the ability to induce regeneration of the ovary. According to the standard dogma of reproductive biology, mammals are born with a set number of follicles which are slowly released as oocytes over the course of a lifetime, with the ovaries incapable of regenerating new follicles.

[2] = test system: oocytes; assay: Meiotic progression (GVBD, PBE) of harvested oocytes, doxorubicin with or without NMN; format: in vivo, mice; settings: doxorubicin and/or NMN
From the text: Once harvested from ovaries, oocytes were stored in IBMX media to prevent progression into meiosis.

[3] = test system: C57BL6 female mice; assay: Cumulus oocyte complex yield after PMSG superovulation, doxorubicin with or without NMN; format: in vivo; settings: per mouse, single dose doxorubicin 10 mg/kg i.p. and/or NMN 2 g/L drinking water, 2 months post doxorubicin
Description: To assess oocyte yield, and mice were hormonally stimulated to superovulated by intraperitoneal injection with 7.5 IU/mL of Pregnant Mare's Serum Gonadotropin (PMSG) (Folligon; Intervet, Boxmeer, Holland) to stimulate follicular growth. After 44-46 hours, ovaries were collected in HEPES-buffered minimum essential medium (aMEM; […] Sigma Aldrich, St. Louis, Mo.) and 100 μM IBMX (Sigma Aldrich). […] NMN was delivered through addition to drinking water at 2 g/L, for a final dose of approximately 165 mg/kg. Administration of NMN began one day prior to doxorubicin administration. […] Ovaries were then punctured to release MI oocytes. In a separate cohort of animals, the same experiment was repeated using animals treated with the platinum based chemotherapy drug cisplatin. In FIG. 6 and Table 1, numbers of cumulus oocyte complexes are listed.

[4] = test system: C57BL6 and SwissTacAusb female mice; assay: Oocyte yield in aged mice treated with NMN; format: in vivo; settings: 15 month-old mice, NMN drinking water 2 g/L, 4 weeks, versus untreated
Description: To assess oocyte yield, and mice were hormonally stimulated to superovulated by intraperitoneal injection with 7.5 IU/mL of Pregnant Mare's Serum Gonadotropin (PMSG) (Folligon; Intervet, Boxmeer, Holland) to stimulate follicular growth. After 44-46 hours, ovaries were collected in HEPES-buffered minimum essential medium (aMEM; Gibco Life Technologies, Grand Island, N.Y.) supplemented with 50 µM of 3-isobuty-1-methylxanthine (IBMX) (Sigma aldrich, NSW, AU) (M2 medium) to maintain meitotic arrest at germinal vesicle stage. Cumulus oocyte complexes (COCs) were isolated from preovulatory follicles using a 27-gauge needle and collected using flame-pulled borosilicate Pasteur pipettes in M2 medium supplemented with 3 mg/ml bovine serum albumin (BSA; Sigma Aldrich, St. Louis, Mo.) and 100 μM IBMX (Sigma Aldrich). […]
Systemic treatment with the NAD^+ precursor nicotinamide mononucleotide (NMN) increases intracellular NAD^+ levels, and we hypothesised that NMN treatment could restore the activity of SIRT2 to stabilise BubR1 and maintain oocyte reserve and competence into later ages. […] Animals were super-ovulated, and oocyte yield was assessed. […]

[5] = test system: SwissTacAusb female mice; assay: Oocyte yield in high fat fed mice treated with NMN; format: in vivo; settings: SwissTacAusb females, 3 months high fat feeding; NMN versus untreated high fat fed littermates
From the text: Systemic treatment with the NAD^+ precursor nicotinamide mononucleotide (NMN) increases intracellular NAD^+ levels, and we hypothesised that NMN treatment could restore the activity of SIRT2 to stabilise BubR1 and maintain oocyte reserve and competence into later ages. We obtained 15 month-old female mice, an age at which this species is functionally infertile, and treated them with NMN through addition to drinking water (2 g/L) for 4 weeks. Animals were super-ovulated, and oocyte yield was assessed. […] Obesity is a major risk factor for female infertility, and to assess whether a similar mechanism was at work, we subjected young SwissTacAusb female mice to 3 months of high fat feeding, followed by NMN treatment for 4 weeks.

[6] = test system: oocytes / blastocysts; assay: IVF of oocytes from 8 month old NMN treated mice: blastocyst formation and inner cell mass; format: in vivo
Description: In addition, the length of treatment with NAD raising compounds (e.g. NMN) positively correlates with improved fertility. Eight month old ex-breeder C57BL6 female mice, which are at an age of declining natural fertility, were treated with NMN through addition to drinking water (2 g/L) for 48 hours, 1 week, 2 weeks, and 4 weeks (6 per group). Animals were then treated with PMSG and then hCG to promote oocyte maturation and ovulation. MII stage oocytes were collected from the oviduct, and fertilized in vitro. Oocytes were then cultured into blastocysts for the next 6 days, at which point these blastocysts were subjected to differential staining to assess blastocyst cell number in either the inner cell mass or the trophectoderm. Inner cell mass cell number is accepted as an important predictor of implantation success rates.
This was measured through performing IVF in oocytes obtained from 8 month old C57BL6 ex-breeder female mice, which were assigned to the following 4 groups (6 per group) . . . • Daily oral gavage, saline control, normal drinking water • Daily oral gavage, 10 mg NMN in saline, normal drinking water • No gavage, normal (control) drinking water • No gavage, NMN in drinking water (2 g/L)
These animals were at an age at which fertility normally declines in this species. Animals were maintained on each of the above treatments for 10 days. Animals were then treated with PMSG and then hCG to promote oocyte maturation and ovulation. MII stage oocytes were collected from the oviduct, and fertilized in vitro. Oocytes were then cultured into blastocysts for the next 6 days, and blastocyst formation rates were assessed. Results at days 5 and six are shown in FIGS. 38 and 39, respectively. Blastocyst formation and hatching were assessed as indicators of developmental competence. Blastocyst formation is a clinically relevant outcome: during clinical IVF, blastocyst stage and hatching blastocyst stage embryos are preferentially transferred over earlier stage embryos into a person wishing to obtain a pregnancy.

[7] = test system: C57BL6 females; assay: Reversal design: pups born after chemotherapy followed by NMN; format: in vivo, mice; settings: cisplatin 5 mg/kg i.p., NMN delivered well after chemotherapy; 6 mating rounds
From the text: In Examples 2-4, it was shown that co-treatment with NMN during chemotherapy treatment could protect against infertility. Next, we decided to investigate whether NMN treatment delivered some time following chemotherapy treatment could actively reverse chemotherapy induced infertility. […] The rationale of this experimental design is to investigate whether NMN has the ability to induce regeneration of the ovary. According to the standard dogma of reproductive biology, mammals are born with a set number of follicles which are slowly released as oocytes over the course of a lifetime, with the ovaries incapable of regenerating new follicles.

NC(=O)c1ccc[n+]([C@@H]2O[C@H](COP(=O)([O-])O)[C@@H](O)[C@H]2O)c1 [NMN, nicotinamide mononucleotide]
Primordial follicle numbers in ovarian histology sections [1]: 108 and 86 and 94 and 78
Proportion of harvested oocytes achieving germinal vesicle breakdown ([2]; 1 h after release from IBMX): 17 % of total
Proportion of harvested oocytes achieving germinal vesicle breakdown ([2]; 2 h after release from IBMX): 67 % of total
Proportions of oocytes achieving polar body extrusion ([2]; 14 hr following GVBD): 79
Proportions of oocytes achieving polar body extrusion ([2]; 16 hr following GVBD): 50
Proportions of oocytes achieving polar body extrusion ([2]; 20 hr following GVBD): 80
Numbers of cumulus oocyte complexes released from mice [3]: able to protect against doxorubicin induced oocyte loss and 33 and 17 and 15 and 10 and 18 and 13
COC (oocyte) yield in aged females [4]: more than doubled; also recorded: dramatically increased
Oocyte yield in high fat fed mice [5]: higher oocyte yield
Efficacy on blastocyst formation after IVF: drinking water versus single daily oral gavage ([6]; 8 month old C57BL6, NMN 2 g/L drinking water versus 10 mg daily gavage, 10 days): better efficacy
Efficacy versus length of NMN administration (inner cell mass cell number of blastocysts) ([6]; NMN 2 g/L drinking water for 48 hours, 1, 2, 4 weeks): time dependent increase in efficacy
Ability of oocytes to form blastocysts following fertilisation in vitro ([6]; oocytes from NMN treated versus untreated mice): enhanced ability to form blastocysts
Number of pups born (cisplatin followed by NMN) [7]: complete restoration
